Measured values: US9271971B2, “Pyrido[3,4-B]indoles and methods of use” (Medivation Technologies, Inc., priority 2009, dated 2016)

Legend:
[1] = target: T1, human recombinant histamine H2 receptor (Homo sapiens, UniProt P25021); experiment: Histamine H2 radioligand binding assay; conditions: [125I]Aminopotentidine specific binding, read-out: Percentage Inhibition, Histamine Binding (1 μM) H2
T1 construct: expressed in transfected cells; host or cells: Chinese hamster ovary (CHO) K1 cells
Procedure: To evaluate in radioligand binding assays the activity of compounds of the invention, human recombinant histamine H2 receptor expressed in Chinese hamster ovary (CHO) K1 cells [Ruat, M., Proc. Natl. Acad. Sci. USA. (1990), 87(5):1658] in a 50 mM Phosphate buffer, pH 7.4 was used. Compounds of the invention were incubated with 0.1 nM [^125I]Aminopotentidine for 120 min. at 25° C. Non-specific binding was estimated in the presence of 3 μM Tiotidine. Receptor proteins were filtered and washed, the filters were then counted to determine [^125I]Aminopotentidine specifically bound. Compounds were screened at 1 μM or lower, using 1% DMSO as vehicle. Biochemical assay results are presented as the percent inhibition of specific binding in Table 2.

[2] = target: T2, human recombinant adrenergic α2B receptor (Homo sapiens, UniProt P18089); experiment: Adrenergic α2B radioligand binding assay; conditions: [3H]Rauwolscine specific binding; for inhibition at 1 µM: read-out: Percent Inhibition of ligand binding, Adrenergic (1 μM ligand conc.) α2B; for inhibition at 0.1 µM: read-out: Percent Inhibition of ligand binding, Adrenergic (0.1 μM ligand conc.) α2B
T2 construct: expressed in transfected cells; host or cells: Chinese hamster ovary (CHO-K1) cells
T2 sequence (P18089 1-450): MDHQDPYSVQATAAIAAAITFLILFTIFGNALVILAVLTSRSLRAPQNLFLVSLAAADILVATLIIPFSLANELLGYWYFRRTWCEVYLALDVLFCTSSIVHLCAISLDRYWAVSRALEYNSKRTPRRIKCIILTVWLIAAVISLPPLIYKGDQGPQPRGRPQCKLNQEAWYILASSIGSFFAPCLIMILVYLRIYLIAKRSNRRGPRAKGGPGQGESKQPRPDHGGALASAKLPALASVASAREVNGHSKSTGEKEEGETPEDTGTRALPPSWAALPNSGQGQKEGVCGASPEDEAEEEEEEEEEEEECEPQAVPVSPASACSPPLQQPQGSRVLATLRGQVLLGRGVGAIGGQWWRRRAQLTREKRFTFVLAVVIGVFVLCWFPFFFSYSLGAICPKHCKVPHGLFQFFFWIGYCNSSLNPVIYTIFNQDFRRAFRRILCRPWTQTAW
Procedure: To evaluate in radioligand binding assays the activity of compounds of the invention, human recombinant adrenergic α2B receptor expressed in Chinese hamster ovary (CHO-K1) cells [Uhlen, S et al., Eur J Pharmacol. (1998), 343(1):93] in a modified Tris-HCl buffer (50 mM Tris-HCl, pH 7.4, 12.5 mM MgCl2, 1 mM EDTA, 0.2% BSA) was used. Compounds of the invention were incubated with 2.5 nM [^3H]Rauwolscine for 60 min. at 25° C. Non-specific binding was estimated in the presence of 10 μM Prozosin. Receptor proteins were filtered and washed, the filters were then counted to determine [^3H]Rauwolscine specifically bound. Compounds were screened at 1 μM or lower, using 1% DMSO as vehicle. Compounds of the invention were tested in this biochemical assay. Biochemical assay results for representative compounds were presented as the percent inhibition of specific binding in Table 3.

[3] = target: T3, human recombinant serotonin (5-Hydroxytryptamine) 5-HT2C receptor (Homo sapiens, UniProt P28335); experiment: Serotonin 5-HT2C radioligand binding assay; conditions: [3H]Mesulergine specific binding, read-out: Percent Inhibition of ligand binding, Serotonin (1 μM ligand concentration) 5-HT2C
T3 construct: expressed in transfected cells; host or cells: Chinese hamster ovary (CHO-K1) cells
T3 sequence (P28335 33-458): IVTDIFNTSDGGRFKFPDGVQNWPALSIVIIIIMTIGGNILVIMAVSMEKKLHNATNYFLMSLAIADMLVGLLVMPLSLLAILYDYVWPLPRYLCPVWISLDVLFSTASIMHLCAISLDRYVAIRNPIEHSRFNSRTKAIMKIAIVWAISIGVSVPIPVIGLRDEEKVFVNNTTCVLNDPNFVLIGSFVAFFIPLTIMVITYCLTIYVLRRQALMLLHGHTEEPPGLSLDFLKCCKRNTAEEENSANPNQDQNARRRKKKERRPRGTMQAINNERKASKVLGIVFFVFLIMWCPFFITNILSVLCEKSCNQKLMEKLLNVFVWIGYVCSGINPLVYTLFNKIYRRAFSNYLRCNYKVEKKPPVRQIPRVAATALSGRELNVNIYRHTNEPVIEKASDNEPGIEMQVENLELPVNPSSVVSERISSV
Procedure: To evaluate in radioligand binding assays the activity of compounds of the invention, human recombinant serotonin (5-Hydroxytryptamine) 5-HT2C receptor expressed in Chinese hamster ovary (CHO-K1) cells [Wolf, W. A. et al., J. Neurochem. (1997), 69:1449] in a modified Tris-HCl buffer (50 mM Tris-HCl, pH 7.4, 0.1% Ascorbic Acid, 10 μM Pargyline) was used. Compounds of the invention were incubated with 1 nM [^3H]Mesulergine for 60 min. at 25° C. Non-specific binding was estimated in the presence of 1 μM Mianserin. Receptor proteins were filtered and washed, the filters were then counted to determine [^3H]Mesulergine specifically bound. Compounds were screened at 1 μM or lower, using 1% DMSO as vehicle. Biochemical assay results are presented as the percent inhibition of specific binding in Table 4.

[4] = target: T4, human recombinant serotonin (5-Hydroxytryptamine) 5-HT6 receptor (Homo sapiens, UniProt P50406); experiment: Serotonin 5-HT6 radioligand binding assay; conditions: [3H]LSD specific binding, read-out: Percent Inhibition of ligand binding, Serotonin (1 μM ligand concentration) 5-HT6
T4 construct: expressed in transfected cells; host or cells: human HeLa cells
Procedure: To evaluate in radioligand binding assays the activity of compounds of the invention, human recombinant serotonin (5-Hydroxytryptamine) 5-HT6 receptor expressed in human HeLa cells [Monsma, F. J. Jr et al., Mol. Pharmacol. (1993), 43:320] in a modified Tris-HCl buffer (50 mM Tris-HCl, pH 7.4, 150 mM NaCl, 2 mM Ascorbic Acid, 0.001% BSA) was used. Compounds of the invention were incubated with 1.5 nM [3H]Lysergic acid diethylamide (LSD) for 120 min. at 37° C. Non-specific binding was estimated in the presence of 5 μM Serotonin (5-HT). Receptor proteins were filtered and washed, the filters were then counted to determine[3H]LSD specifically bound. Compounds were screened at 1 μM or lower, using 1% DMSO as vehicle. Biochemical assay results are presented as the percent inhibition of specific binding in Table 4.

T4 sequence (P50406 whole entry): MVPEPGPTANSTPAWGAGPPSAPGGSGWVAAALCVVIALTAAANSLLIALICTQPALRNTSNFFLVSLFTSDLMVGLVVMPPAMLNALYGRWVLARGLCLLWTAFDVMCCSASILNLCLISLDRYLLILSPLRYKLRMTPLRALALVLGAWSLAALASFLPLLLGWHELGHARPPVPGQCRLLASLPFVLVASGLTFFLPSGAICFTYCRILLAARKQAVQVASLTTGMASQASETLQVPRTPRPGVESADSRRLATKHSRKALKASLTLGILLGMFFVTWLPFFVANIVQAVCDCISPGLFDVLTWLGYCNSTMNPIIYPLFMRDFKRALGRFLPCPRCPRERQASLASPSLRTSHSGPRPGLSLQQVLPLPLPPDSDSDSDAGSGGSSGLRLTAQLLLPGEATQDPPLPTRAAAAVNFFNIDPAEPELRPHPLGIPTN
T1 sequence (P25021 whole entry): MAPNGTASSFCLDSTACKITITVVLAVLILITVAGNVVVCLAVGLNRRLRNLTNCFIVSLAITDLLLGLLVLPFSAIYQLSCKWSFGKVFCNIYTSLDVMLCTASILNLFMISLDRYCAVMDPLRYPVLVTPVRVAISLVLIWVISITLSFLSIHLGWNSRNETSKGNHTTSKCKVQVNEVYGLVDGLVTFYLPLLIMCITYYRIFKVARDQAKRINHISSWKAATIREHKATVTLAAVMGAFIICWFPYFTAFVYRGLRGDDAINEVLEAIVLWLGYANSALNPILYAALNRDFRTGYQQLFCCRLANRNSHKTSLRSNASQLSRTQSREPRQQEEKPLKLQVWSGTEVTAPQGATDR

SMILES	inhibition at 1 µM [1]	inhibition at 1 µM [2]	inhibition at 1 µM [3]	inhibition at 1 µM [4]	inhibition at 0.1 µM [2]
Cc1ccc2c(c1)c1c(n2CC(=O)N2CCCCC2)CN2CCC1C2 (stereo not shown) [Compound 7]	-4%	0%	2%	0%	–
Cc1ccc2c(c1)c1c(n2CC(=O)N2CCOCC2)CN2CCC1C2 (stereo not shown) [Compound 26]	-1%	7%	20%	4%	–
C=C(Cn1c2c(c3cc(C)ccc31)C1CCN(C2)C1)c1ccc(F)cc1 (stereo not shown) [Compound 3]	25%	93%	97%	105%	–
C/C(=C\n1c2c(c3cc(C)ccc31)C1CCN(C2)C1)c1ccncc1 (stereo not shown) [Compound 44]	-3%	–	58%	97%	9%
Cc1ccc2c(c1)c1c(n2C(=O)Cc2ccc(Cl)cc2)CN2CCC1C2 (stereo not shown) [Compound 36]	20%	–	89%	38%	13%
Cc1ccc2c(c1)c1c(n2CC(=O)N2CCNCC2)CN2CCC1C2 (stereo not shown) [Compound 24]	-3%	-4%	5%	5%	–
Cc1ccc2c(c1)c1c(n2CC(=O)c2ccccc2)CN2CCC1C2 (stereo not shown) [Compound 21]	-6%	20%	-4%	29%	–
Cc1ccc2c(c1)c1c(n2CCc2ccc(C(F)(F)F)nc2)CN2CCC1C2 (stereo not shown) [Compound 1]	0%	7%	10%	10%	–
C/C(=C\n1c2c(c3cc(C)ccc31)C1CCN(C2)C1)c1ccccc1F (stereo not shown) [Compound 38]	7%	–	93%	58%	25%
Cc1ccc2c(c1)c1c(n2CCc2ccccn2)CN2CCC1C2 (stereo not shown) [Compound 11]	-2%	48%	17%	20%	–
Cc1ccc2c(c1)c1c(n2CC(=O)N(C)C)CN2CCC1C2 (stereo not shown) [Compound 27]	-3%	-15%	-1%	5%	–
Cc1ccc2c(c1)c1c(n2CC(C)(O)c2ccc(Cl)cc2)CN2CCC1C2 (stereo not shown) [Compound 16]	10%	103%	92%	29%	–
Cc1ccc2c(c1)c1c(n2CC(O)c2ccccc2)CN2CCC1C2 (stereo not shown) [Compound 4]	5%	89%	31%	56%	–
C/C(=C\n1c2c(c3cc(C)ccc31)C1CCN(C2)C1)c1ccc(F)cc1 (stereo not shown) [Compound 22]	15%	95%	96%	102%	–
Cc1ccc2c(c1)c1c(n2CCc2ccc(C)nc2)CN2CCC1C2 (stereo not shown) [Compound 12]	4%	16%	5%	2%	–
Cc1ccc2c(c1)c1c(n2CC(=O)N2CCC(C)CC2)CN2CCC1C2 (stereo not shown) [Compound 25]	-4%	-17%	15%	-2%	–
Cc1ccc2c(c1)c1c(n2CCc2nc(-c3ccccc3)cs2)CN2CCC1C2 (stereo not shown) [Compound 19]	-9%	61%	23%	9%	–
C/C(=C\n1c2c(c3cc(C)ccc31)C1CCN(C2)C1)c1ccc(Cl)cc1 (stereo not shown) [Compound 32]	82%	98%	92%	97%	56%
